Source: US9248130B2, “Methods and compositions for treating thyroid-related medical conditions with reduced folates” (priority 2009, dated 2016)

How the values were obtained:
Type in all cases: in vivo, human
[1] = Hematological response (reticulocytes) in hypothyroid infant patient (case report); conditions: patient Example 1; additional nutritional supplement containing 2 mcg of vitamin B12
Description: Example 1 and Example 2 received different nutritional supplementation with respect to vitamin B12. Although Example 2 did receive the same infant milk formula that Example 1 received, which infant milk formula contained vitamin B12, Example 2 received less of the infant milk formula than Example 1, and Example 2 received in lieu of the infant milk formula more of the breast milk from the hypothyroid […]. Example 1 also received an additional multivitamin nutritional supplement that included 2 mcg of vitamin B12.

[2] = Physical, behavioral and social skills of patient with cerebrospinal folate deficiency (case report); conditions: patient Example 2; after treatment
[3] = Cerebrospinal folate levels in patient with cerebrospinal folate deficiency (case report); conditions: patient Example 2; folinic acid 5 mg twice per day; within approximately four months; rose from 32 L; preferred range 40-128
Method: Example 1 was tested for cerebrospinal folate deficiency approximately four months after Example 2's testing. […] Studies have shown that the earlier the anemias associated with cerebrospinal folate deficiency are addressed, the better the adversely impacted individual can overcome more long-term effects of the associated folate deficiency.
After Example 2's diagnosis, Example 2 was placed on 5-methyltetrahydrofolate in the form of folinic acid (5 mg twice per day).

Compound	hematological response: reticulocytes [1]	physical, behavioral and social skills [2]	cerebrospinal folate levels [3]
cobalamin [vitamin B12]	moving from below normal to normal	–	–
Nc1nc2c(c(=O)[nH]1)N(C=O)C(CNc1ccc(C(=O)N[C@@H](CCC(=O)O)C(=O)O)cc1)CN2 (stereo partly drawn) [folinic acid, 6(R,S)-5-formyltetrahydrofolate]	–	showed improvement	approximately 88
